The values below come from article PMC3998834 (Biopolymers, 2014).

The experiment deals with BT-474 cells. Briefly: Antiproliferative assay. Format: cell-based. The following applies: Homo sapiens, BT-474, 72 h, read-out: Antiproliferative activity IC50, BT-474; SD.

With `CS(=O)(=O)CCNCc1ccc(-c2ccc3ncnc(Nc4ccc(OCc5cccc(F)c5)c(Cl)c4)c3c2)o1` [lapatinib], the IC50 is 0.025 ± 0.004 µM.
